In article PMC5218480 (PLoS ONE, 2017):

Test system: MV-4-11 cells
Test: Gene expression microarray analysis (Affymetrix PrimeView) and GSEA
Assay type: cell-based, human
Design: RFU PODN (11730768_x_at) / Fold change /veh PODN (11730768_x_at) / RFU LINC00158 (11744669_a_at) / Fold change /veh LINC00158 (11744669_a_at) / RFU DUSP10 (11751237_a_at) / Fold change /veh DUSP10 (11751237_a_at) / RFU ID3 (11757404_x_at) / Fold change /veh ID3 (11757404_x_at) / RFU PLEKHG5 (11737974_s_at) / Fold change /veh PLEKHG5 (11737974_s_at) / RFU LRRC4B (11730491_at) / Fold change /veh LRRC4B (11730491_at) / RFU GIMAP4 (11747438_a_at) / Fold change /veh GIMAP4 (11747438_a_at) / RFU KRT8 (11758183_x_at) / Fold change /veh KRT8 (11758183_x_at) / RFU CNN1 (11734310_a_at) / Fold change /veh CNN1 (11734310_a_at) / RFU VPS37D (11726825_at) / Fold change /veh VPS37D (11726825_at) / RFU C10orf10 (11716522_x_at) / Fold change /veh C10orf10 (11716522_x_at) / RFU KIR2DL2 /// KIR2DL4 /// KIR2DL5A /// KIR2DL5B /// KIR2DS1 /// KIR2DS2 /// KIR2DS3 /// KIR2DS4 /// KIR3DL3 /// KIR3DL3 /// KIR3DS1 (11738374_at) / Fold change /veh KIR2DL2 /// KIR2DL4 /// KIR2DL5A /// KIR2DL5B /// KIR2DS1 /// KIR2DS2 /// KIR2DS3 /// KIR2DS4 /// KIR3DL3 /// KIR3DL3 /// KIR3DS1 (11738374_at) / RFU C1QL1 (11718748_at) / Fold change /veh C1QL1 (11718748_at) / RFU TMPRSS4 (11747572_a_at) / Fold change /veh TMPRSS4 (11747572_a_at) / RFU HAMP (11756126_x_at) / Fold change /veh HAMP (11756126_x_at) / RFU RNFT2 (11725882_a_at) / Fold change /veh RNFT2 (11725882_a_at) / RFU NR4A2 (11747474_a_at) / Fold change /veh NR4A2 (11747474_a_at) / RFU ABCC12 (11746883_a_at) / Fold change /veh ABCC12 (11746883_a_at) / RFU TMEM136 (11760407_x_at) / Fold change /veh TMEM136 (11760407_x_at) / RFU CLDN22 /// WWC2 (11732394_at) / Fold change /veh CLDN22 /// WWC2 (11732394_at) / RFU HLA-DPB1 (11760878_x_at) / Fold change /veh HLA-DPB1 (11760878_x_at) / RFU SPINT1 (11716480_a_at) / Fold change /veh SPINT1 (11716480_a_at) / RFU GAP43 (11754022_s_at) / Fold change /veh GAP43 (11754022_s_at) / RFU A4GNT (11735810_at) / Fold change /veh A4GNT (11735810_at) / RFU PRB3 (11715151_x_at) / Fold change /veh PRB3 (11715151_x_at) / RFU TUBB4B (11761932_at) / Fold change /veh TUBB4B (11761932_at) / RFU CAPN14 (11732068_a_at) / Fold change /veh CAPN14 (11732068_a_at) / RFU TMCC2 (11721928_a_at) / Fold change /veh TMCC2 (11721928_a_at) / RFU IRGQ (11745062_a_at) / Fold change /veh IRGQ (11745062_a_at) / RFU FAM174B (11720279_a_at) / Fold change /veh FAM174B (11720279_a_at) / RFU TMPRSS4 (11748680_a_at) / Fold change /veh TMPRSS4 (11748680_a_at) / RFU FAM212B (11763350_a_at) / Fold change /veh FAM212B (11763350_a_at) / RFU PLEKHG5 (11743358_a_at) / Fold change /veh PLEKHG5 (11743358_a_at) / RFU ZSCAN30 (11745921_a_at) / Fold change /veh ZSCAN30 (11745921_a_at) / RFU CMKLR1 (11741424_a_at) / Fold change /veh CMKLR1 (11741424_a_at) / RFU LOC101060620 /// MAPK8IP1 (11723275_at) / Fold change /veh LOC101060620 /// MAPK8IP1 (11723275_at) / RFU SPTSSB (11747773_x_at) / Fold change /veh SPTSSB (11747773_x_at) / RFU PRSS12 (11739890_at) / Fold change /veh PRSS12 (11739890_at) / RFU BIN1 (11741810_x_at) / Fold change /veh BIN1 (11741810_x_at) / RFU WNT11 (11732464_a_at) / Fold change /veh WNT11 (11732464_a_at) / RFU C10orf10 (11716521_a_at) / Fold change /veh C10orf10 (11716521_a_at) / RFU C5orf56 (11738089_at) / Fold change /veh C5orf56 (11738089_at) / RFU CYB561 (11721691_x_at) / Fold change /veh CYB561 (11721691_x_at) / RFU ANKRD19P (11752326_a_at) / Fold change /veh ANKRD19P (11752326_a_at) / RFU OR2T12 /// OR2T33 /// OR2T8 (11738714_s_at) / Fold change /veh OR2T12 /// OR2T33 /// OR2T8 (11738714_s_at) / RFU VCAN (11748164_a_at) / Fold change /veh VCAN (11748164_a_at) / RFU JSRP1 (11732532_at) / Fold change /veh JSRP1 (11732532_at) / RFU KRTAP10-11 (11738290_x_at) / Fold change /veh KRTAP10-11 (11738290_x_at) / RFU MYO3A (11730013_a_at) / Fold change /veh MYO3A (11730013_a_at) / RFU EBF3 (11725865_a_at) / Fold change /veh EBF3 (11725865_a_at) / RFU CAMK2N1 (11719241_x_at) / Fold change /veh CAMK2N1 (11719241_x_at) / RFU C5orf56 (11738088_a_at) / Fold change /veh C5orf56 (11738088_a_at) / RFU OLFML3 (11715873_a_at) / Fold change /veh OLFML3 (11715873_a_at) / RFU LOC100653217 /// NTM (11731650_a_at) / Fold change /veh LOC100653217 /// NTM (11731650_a_at) / RFU MAPK11 (11762145_a_at) / Fold change /veh MAPK11 (11762145_a_at) / RFU FIZ1 (11724087_x_at) / Fold change /veh FIZ1 (11724087_x_at) / RFU OASL (11726364_x_at) / Fold change /veh OASL (11726364_x_at) / RFU SOX15 (11748057_x_at) / Fold change /veh SOX15 (11748057_x_at) / RFU CD79A (11719716_a_at) / Fold change /veh CD79A (11719716_a_at) / RFU HIST1H1D (11736915_at) / Fold change /veh HIST1H1D (11736915_at) / RFU CASKIN2 (11723855_a_at) / Fold change /veh CASKIN2 (11723855_a_at) / RFU LOC730098 (11760151_x_at) / Fold change /veh LOC730098 (11760151_x_at) / RFU OR4N2 (11742367_at) / Fold change /veh OR4N2 (11742367_at) / RFU PRRT2 (11749266_a_at) / Fold change /veh PRRT2 (11749266_a_at) / RFU SNX32 (11753110_a_at) / Fold change /veh SNX32 (11753110_a_at) / RFU CDHR5 (11726645_a_at) / Fold change /veh CDHR5 (11726645_a_at) / RFU RCAN1 (11760418_a_at) / Fold change /veh RCAN1 (11760418_a_at) / RFU FAM167A (11723789_a_at) / Fold change /veh FAM167A (11723789_a_at) / RFU FAM26E (11764081_at) / Fold change /veh FAM26E (11764081_at) / RFU ISYNA1 (11749810_s_at) / Fold change /veh ISYNA1 (11749810_s_at) / RFU ACY1 (11761880_at) / Fold change /veh ACY1 (11761880_at) / RFU 11764098_at / Fold change /veh 11764098_at / RFU SAMD14 (11745864_x_at) / Fold change /veh SAMD14 (11745864_x_at) / RFU NPB (11741838_a_at) / Fold change /veh NPB (11741838_a_at) / RFU TMPRSS6 (11731388_a_at) / Fold change /veh TMPRSS6 (11731388_a_at) / RFU KRTAP10-2 (11738614_at) / Fold change /veh KRTAP10-2 (11738614_at) / RFU ARHGAP8 /// PRR5-ARHGAP8 (11727945_x_at) / Fold change /veh ARHGAP8 /// PRR5-ARHGAP8 (11727945_x_at) / RFU KRTAP5-7 /// NADSYN1 (11734609_at) / Fold change /veh KRTAP5-7 /// NADSYN1 (11734609_at) / RFU RASL12 (11751679_a_at) / Fold change /veh RASL12 (11751679_a_at) / RFU CDKN2B (11736163_a_at) / Fold change /veh CDKN2B (11736163_a_at) / RFU PRF1 (11729649_at) / Fold change /veh PRF1 (11729649_at) / RFU, ZNF638 /// ZNF638-IT1 / Fold change vs veh, ZNF638 /// ZNF638-IT1 / RFU, PANK3 / Fold change vs veh, PANK3 / RFU, SH3YL1 / Fold change vs veh, SH3YL1 / RFU, ZEB2 / Fold change vs veh, ZEB2 / RFU, NRIP1 / Fold change vs veh, NRIP1 / RFU, PTTG1IP / Fold change vs veh, PTTG1IP / RFU, CAPN2 / Fold change vs veh, CAPN2 / RFU, MED14 / Fold change vs veh, MED14 / RFU, SNORA58 / Fold change vs veh, SNORA58 / RFU, C1orf63 / Fold change vs veh, C1orf63 / RFU, LRRFIP1 / Fold change vs veh, LRRFIP1 / RFU, NDUFAF7 / Fold change vs veh, NDUFAF7 / RFU, SLC12A2 / Fold change vs veh, SLC12A2 / RFU, IBTK / Fold change vs veh, IBTK / RFU, ESF1 / Fold change vs veh, ESF1 / Fold change vs veh, TMEM50B / RFU, TAOK1 / Fold change vs veh, TAOK1 / RFU, ACBD3 / Fold change vs veh, ACBD3 / RFU, TMA16 / Fold change vs veh, TMA16 / RFU, RWDD3 / Fold change vs veh, RWDD3 / RFU, BCAT1 / Fold change vs veh, BCAT1 / RFU, EDEM3 / Fold change vs veh, EDEM3 / RFU, TMEM33 / Fold change vs veh, TMEM33 / RFU, WDR75 / Fold change vs veh, WDR75 / RFU, AHCTF1 / Fold change vs veh, AHCTF1 / RFU, TFRC / Fold change vs veh, TFRC / RFU, ZDHHC17 / Fold change vs veh, ZDHHC17 / RFU, NOM1 / Fold change vs veh, NOM1 / RFU, ARL8B / Fold change vs veh, ARL8B / RFU, ZBTB11 / Fold change vs veh, ZBTB11 / RFU, TAMM41 / Fold change vs veh, TAMM41 / RFU, KIAA1704 /// LOC100996395 / Fold change vs veh, KIAA1704 /// LOC100996395 / RFU, ING1 / Fold change vs veh, ING1 / RFU, TRMT61B / Fold change vs veh, TRMT61B / RFU, FUBP3 / Fold change vs veh, FUBP3 / RFU, TP53 / Fold change vs veh, TP53 / RFU, TNKS2 / Fold change vs veh, TNKS2 / RFU, ZFP14 / Fold change vs veh, ZFP14 / RFU, ACTR2 / Fold change vs veh, ACTR2 / RFU, PPP3R1 / Fold change vs veh, PPP3R1 / RFU, PIK3R1 / Fold change vs veh, PIK3R1 / RFU, HNRNPA1 / Fold change vs veh, HNRNPA1 / RFU, RNF170 / Fold change vs veh, RNF170 / RFU, ZNF28 / Fold change vs veh, ZNF28 / RFU, RNGTT / Fold change vs veh, RNGTT / RFU, OGT / Fold change vs veh, OGT / RFU, BRD1 / Fold change vs veh, BRD1 / RFU, MARS / Fold change vs veh, MARS / RFU, ZNF655 / Fold change vs veh, ZNF655 / RFU, FAHD1 / Fold change vs veh, FAHD1 / RFU, BDP1 / Fold change vs veh, BDP1 / RFU, LRRCC1 / Fold change vs veh, LRRCC1 / RFU, ARID1A / Fold change vs veh, ARID1A / RFU, ZNF146 / Fold change vs veh, ZNF146 / RFU, ZNF330 / Fold change vs veh, ZNF330 / RFU, GPN3 / Fold change vs veh, GPN3 / RFU, C9orf123 / Fold change vs veh, C9orf123 / RFU, N4BP2L2 / Fold change vs veh, N4BP2L2 / RFU, ARFIP1 / Fold change vs veh, ARFIP1 / RFU, FAM179B / Fold change vs veh, FAM179B / RFU, BCL10 / Fold change vs veh, BCL10 / RFU, UHRF1BP1L / Fold change vs veh, UHRF1BP1L / RFU, BET1 / Fold change vs veh, BET1 / RFU, CNOT2 / Fold change vs veh, CNOT2 / RFU, ZNF268 / Fold change vs veh, ZNF268 / Fold change vs veh, ZNF507 / RFU, DGCR2 / Fold change vs veh, DGCR2 / RFU, WDSUB1 / Fold change vs veh, WDSUB1 / Fold change vs veh, HSP90B1 /// MIR3652 / RFU, ADSS / Fold change vs veh, ADSS / RFU, GK / Fold change vs veh, GK / RFU, ZNF148 / Fold change vs veh, ZNF148 / RFU, TAF9 / Fold change vs veh, TAF9 / RFU, SLC1A5 / Fold change vs veh, SLC1A5 / RFU, SLMO2 / Fold change vs veh, SLMO2 / RFU, ABCC4 / Fold change vs veh, ABCC4 / RFU, LOC101060439 /// RAP1B / Fold change vs veh, LOC101060439 /// RAP1B / RFU, RFX7 / Fold change vs veh, RFX7 / RFU, GTPBP10 / Fold change vs veh, GTPBP10 / RFU, CNEP1R1 / Fold change vs veh, CNEP1R1 / RFU, BIVM-ERCC5 /// ERCC5 / Fold change vs veh, BIVM-ERCC5 /// ERCC5 / RFU, ILF3 / Fold change vs veh, ILF3 / RFU 11762660_at / Fold change /veh 11762660_at / RFU VCAN (11757783_s_at) / Fold change /veh VCAN (11757783_s_at) / RFU DDX43 (11728927_at) / Fold change /veh DDX43 (11728927_at) / RFU KRT8 (11758188_x_at) / Fold change /veh KRT8 (11758188_x_at) / RFU NKD1 (11759106_at) / Fold change /veh NKD1 (11759106_at) / RFU SRD5A1 (11742802_a_at) / Fold change /veh SRD5A1 (11742802_a_at) / RFU TPSAB1 /// TPSB2 (11721975_s_at) / Fold change /veh TPSAB1 /// TPSB2 (11721975_s_at) / RFU GSTM3 (11746129_a_at) / Fold change /veh GSTM3 (11746129_a_at) / RFU IL23R (11737362_x_at) / Fold change /veh IL23R (11737362_x_at) / RFU TMEM51 (11727254_a_at) / Fold change /veh TMEM51 (11727254_a_at) / RFU PIWIL2 (11732686_x_at) / Fold change /veh PIWIL2 (11732686_x_at) / RFU ORM1 (11744905_x_at) / Fold change /veh ORM1 (11744905_x_at) / RFU CCDC152 (11743942_at) / Fold change /veh CCDC152 (11743942_at) / RFU ECM1 (11717891_a_at) / Fold change /veh ECM1 (11717891_a_at) / RFU IL23R (11748794_a_at) / Fold change /veh IL23R (11748794_a_at) / RFU TNFAIP8L3 (11732012_x_at) / Fold change /veh TNFAIP8L3 (11732012_x_at) / RFU MBOAT4 (11741988_at) / Fold change /veh MBOAT4 (11741988_at) / RFU 11764193_at / Fold change /veh 11764193_at / RFU TMEM53 (11763286_at) / Fold change /veh TMEM53 (11763286_at) / RFU MAGEB2 (11727129_at) / Fold change /veh MAGEB2 (11727129_at) / RFU TMEM200A (11744735_a_at) / Fold change /veh TMEM200A (11744735_a_at) / RFU CCDC152 (11751479_a_at) / Fold change /veh CCDC152 (11751479_a_at) / RFU FAM211A (11726209_a_at) / Fold change /veh FAM211A (11726209_a_at) / RFU RGS16 (11746705_a_at) / Fold change /veh RGS16 (11746705_a_at) / RFU VCAN (11755009_s_at) / Fold change /veh VCAN (11755009_s_at) / RFU RHOB (11743442_s_at) / Fold change /veh RHOB (11743442_s_at) / RFU RGS16 (11720943_a_at) / Fold change /veh RGS16 (11720943_a_at) / RFU RGS16 (11720944_at) / Fold change /veh RGS16 (11720944_at) / RFU, VPS4B / Fold change vs veh, VPS4B / RFU, CREB1 / Fold change vs veh, CREB1 / RFU, DNAJC13 / Fold change vs veh, DNAJC13 / RFU, GNAQ / Fold change vs veh, GNAQ / RFU, CDK5R1 / Fold change vs veh, CDK5R1 / RFU, ZRANB3 / Fold change vs veh, ZRANB3 / RFU, CUL4A / Fold change vs veh, CUL4A / RFU, CCNY / Fold change vs veh, CCNY / RFU, UFL1 / Fold change vs veh, UFL1 / RFU, COG3 / Fold change vs veh, COG3 / RFU, DIAPH2 / Fold change vs veh, DIAPH2 / RFU, SKA2 / Fold change vs veh, SKA2 / RFU, AFF3 / Fold change vs veh, AFF3 / RFU, LMF1 / Fold change vs veh, LMF1 / RFU, IPO11 / Fold change vs veh, IPO11 / RFU, DFFB / Fold change vs veh, DFFB / RFU, FOXP1 / Fold change vs veh, FOXP1 / RFU, CARD8 / Fold change vs veh, CARD8 / RFU, STRN3 / Fold change vs veh, STRN3 / RFU, ADK / Fold change vs veh, ADK / RFU, RASSF2 / Fold change vs veh, RASSF2 / RFU, WIPF1 / Fold change vs veh, WIPF1 / RFU, LARP1B / Fold change vs veh, LARP1B / RFU, RASA1 / Fold change vs veh, RASA1 / RFU, RB1 / Fold change vs veh, RB1 / RFU, PPFIA1 / Fold change vs veh, PPFIA1 / RFU, MAT2A / Fold change vs veh, MAT2A / RFU, CCT5 / Fold change vs veh, CCT5 / RFU, WDR92 / Fold change vs veh, WDR92 / RFU, CUX1 / Fold change vs veh, CUX1 / RFU, TTC7A / Fold change vs veh, TTC7A / RFU, TMEM135 / Fold change vs veh, TMEM135 / RFU, DEPTOR / Fold change vs veh, DEPTOR / RFU, CPM / Fold change vs veh, CPM / RFU, DNAJB6 / Fold change vs veh, DNAJB6 / RFU, CACNA2D3 / Fold change vs veh, CACNA2D3 / RFU, DTX4 / Fold change vs veh, DTX4 / RFU, TFCP2 / Fold change vs veh, TFCP2 / RFU, GMCL1 /// GMCL1P1 / Fold change vs veh, GMCL1 /// GMCL1P1 / RFU, AEBP2 / Fold change vs veh, AEBP2 / RFU, SNHG1 /// SNORD22 /// SNORD25 /// SNORD26 /// SNORD27 /// SNORD28 /// SNORD29 /// SNORD31 / Fold change vs veh, SNHG1 /// SNORD22 /// SNORD25 /// SNORD26 /// SNORD27 /// SNORD28 /// SNORD29 /// SNORD31 / Fold change (Aza/veh), C12orf56 (ProbeSet 11735607_a_at) / Fold change (ACY-1035/veh), C12orf56 (ProbeSet 11735607_a_at) / Fold change (Aza/veh), FGFR1OP (ProbeSet 11751329_s_at) / Fold change (ACY-1035/veh), FGFR1OP (ProbeSet 11751329_s_at) / Fold change (Aza/veh), VPS36 (ProbeSet 11739960_a_at) / Fold change (ACY-1035/veh), VPS36 (ProbeSet 11739960_a_at) / RFU SYPL1 (11715823_x_at) / Fold change /veh SYPL1 (11715823_x_at) / RFU IGFBP7 (11715501_s_at) / Fold change /veh IGFBP7 (11715501_s_at) / RFU REEP3 (11722064_at) / Fold change /veh REEP3 (11722064_at) / RFU IGLL1 (11728026_x_at) / Fold change /veh IGLL1 (11728026_x_at): dose or concentration left out as unconfirmed
Settings: ProbeSet 11748335_a_at; LIST B

Nc1ncn([C@@H]2O[C@H](CO)[C@@H](O)[C@H]2O)c(=O)n1 [azacitidine]
RFU, SLMO2: 144.00 RFU
